In patent US10927348B2, “Human adipose tissue white and ‘brown-on-white’ progenitors for reconstructive and metabolic therapies” (University of Massachusetts, priority 2014, dated 2021):
Entries after “also recorded” stand apart in the source; their conditions may differ. Counter-ions that a name gives are not always drawn.

Tested on: differentiated HACAPS
Assay: RT-PCR gene expression in differentiated HACAPS exposed to forskolin or isoproterenol
Type: cell-based, human
Conditions: isoproterenol for 6 hours after adipogenic differentiation, hydrochloride

SMILES: CC(C)NCC(O)c1ccc(O)c(O)c1 (stereo not shown) [isoproterenol, Isoproterenol hydrochloride]
- UCP1 mRNA expression: acute increase; also recorded: pronounced increase
